Columns and labels:
Assay in all cases: O2 consumption (Clark electrode), activation of AOX in inverted membrane vesicles
Format in all cases: biochemical
[1] = biological target: T1, GmAOX1 (Glycine max, UniProt Q07185); details: activator; 2.5 mM NADH, 5 mM DTT, 1 mM KCN, pH 7.0; discussion text b26 prints 6 μM; read-out: Present study / K1/2 PYR
T1 construct: gene AOX1; mature form, predicted mitochondrial target peptide removed, new start Met (forward primer encodes M-ESTLALS), pET22b(+), E. coli BHH8 inverted membrane vesicles; apparent 28 kDa; reduced (DTT)
T1 sequence (Q07185 42-321): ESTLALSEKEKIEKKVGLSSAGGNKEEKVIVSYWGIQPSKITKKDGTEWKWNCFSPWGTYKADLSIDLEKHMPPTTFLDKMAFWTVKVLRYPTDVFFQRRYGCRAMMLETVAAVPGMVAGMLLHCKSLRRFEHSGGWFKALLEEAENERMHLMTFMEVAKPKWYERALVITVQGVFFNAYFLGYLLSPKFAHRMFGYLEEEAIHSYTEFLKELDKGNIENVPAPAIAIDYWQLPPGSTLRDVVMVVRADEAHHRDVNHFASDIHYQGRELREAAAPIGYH
Text: O2 consumption (Clark electrode), activation of AOX in inverted membrane vesicles on GmAOX1

[2] = biological target: T2, GmAOX2A (Glycine max, UniProt Q41266); details: activator; 2.5 mM NADH, 5 mM DTT, 1 mM KCN, pH 7.0; discussion text b26 prints 90 μM; read-out: Present study / K1/2 PYR
T2 construct: gene AOX2; mature form, predicted mitochondrial target peptide removed, new start Met (forward primer encodes M-MVSPA), pET22b(+), E. coli BHH8 inverted membrane vesicles; apparent 29 kDa; reduced (DTT)
T2 sequence (Q41266 58-333): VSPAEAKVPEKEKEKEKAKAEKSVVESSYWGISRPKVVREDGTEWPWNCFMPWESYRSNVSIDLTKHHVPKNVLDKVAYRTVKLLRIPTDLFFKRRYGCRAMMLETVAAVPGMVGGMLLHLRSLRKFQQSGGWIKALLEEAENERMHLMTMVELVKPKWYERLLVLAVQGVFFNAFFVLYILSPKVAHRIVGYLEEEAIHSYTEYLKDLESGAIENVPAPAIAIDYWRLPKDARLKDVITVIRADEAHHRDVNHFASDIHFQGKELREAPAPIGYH
Text: O2 consumption (Clark electrode), activation of AOX in inverted membrane vesicles on GmAOX2A

[3] = biological target: T3, GmAOX2D (Glycine max, UniProt O03376); details: activator; 2.5 mM NADH, 5 mM DTT, 1 mM KCN, pH 7.0; read-out: Present study / K1/2 PYR
T3 construct: gene AOX3; mature form, predicted mitochondrial target peptide removed, new start Met (forward primer encodes M-STLPEVK), pET22b(+), E. coli BHH8 inverted membrane vesicles; apparent 31 kDa; reduced (DTT)
T3 sequence (O03376 51-326): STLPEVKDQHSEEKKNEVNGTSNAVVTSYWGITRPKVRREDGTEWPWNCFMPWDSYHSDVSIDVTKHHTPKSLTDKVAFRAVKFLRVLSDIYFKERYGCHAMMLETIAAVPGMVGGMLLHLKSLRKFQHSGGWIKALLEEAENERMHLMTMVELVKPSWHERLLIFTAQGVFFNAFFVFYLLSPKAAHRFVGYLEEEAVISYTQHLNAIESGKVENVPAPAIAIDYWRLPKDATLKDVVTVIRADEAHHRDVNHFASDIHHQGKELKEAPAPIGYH
Text: O2 consumption (Clark electrode), activation of AOX in inverted membrane vesicles on GmAOX2D

## CC(=O)C(=O)O [pyruvate]
[1]
  EC50: 4 µM
[2]
  EC50: 99 µM
[3]
  EC50: 40 µM

Source: paper PMC8801435, “Legume Alternative Oxidase Isoforms Show Differential Sensitivity to Pyruvate Activation” (Frontiers in Plant Science, 2022)
